Our source for the IC50 values is patent publication US20220073536A1 (Rigel Pharmaceuticals, Inc., priority 2003, published 2022).

Assay [1] has as its system cultured human mast cells (CHMC). Description: CHMC low cell density IgE activation: tryptase assay. To be noted: IgE activation. It counts as cell-based. The method in brief:
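CHMC at 1000–1500 cells/well were preincubated 1 hr at 37° C., stimulated with anti-IgE for 30 minutes at 37° C., then pelleted. Supernatant tryptase was measured with a fluorogenic substrate after 30 min at room temperature, against un-stimulated control wells.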

For assay [2] the test system is unchanged. The assay can be described thus: CHMC low cell density ionomycin activation: tryptase assay. The class given is cell-based. The note with it: read-out: LD Tryptase, CHMC, Iono, 3 pt.
Setting [3] is: low cell density CHMC, tryptase, 3 pt, read-out: LD Tryptase, CHMC, IgE, 3 pt.
The mark [4] stands for this setting: low cell density CHMC, tryptase, 8 pt, read-out: LD Tryptase, CHMC, IgE, 8 pt.
The mark [5] stands for this setting: low cell density CHMC, tryptase, 3 pt.
Where [6] appears, read: Homo sapiens, Mast cell, low cell density CHMC, tryptase, 3 pt, read-out: LD Tryptase, CHMC, IgE, 3 pt.
Setting [7] is: Homo sapiens, Mast cell, low cell density CHMC, tryptase, 3 pt.
The mark [8] stands for this setting: Homo sapiens, Mast cell, low cell density, 3 pt, read-out: LD Tryptase, CHMC, IgE, 3 pt.
Setting [9] is: Homo sapiens, Mast cell, low cell density, 3 pt.

As to `CC(C)(C)OC(=O)NCC(=O)NCc1ccc(Nc2ncc(F)c(Nc3ccc4c(c3)NC(=O)C(F)(F)O4)n2)cc1` [Compound 1309, N2-[4-[1-(tert-Butoxycarbonylamino)methylenecarbonylamino]methylphenyl]-N4-(2,2-difluoro-3-oxo-4H-benz[1,4]oxazin-6-yl)-5-fluoro-2,4-pyrimidinediamine], the IC50 in assay [1] (setting [3]) is under 10 µM; in assay [1] (setting [4]) it was under 10 µM; in assay [2] (setting [5]) it was over 10 µM.

In the case of `CNC(=O)COc1cccc(Nc2ncc(F)c(N(C)c3ccc(OC)c(OC)c3)n2)c1` [Compound 447, N4-(3,4-Dimethoxyphenyl)-5-fluoro-N4-methyl-N2-[3-(N-methylamino)carbonylmethyleneoxyphenyl]-2,4-pyrimidinediamine], the figures for the IC50 in assay [1] (setting [3]) and in assay [2] (setting [5]) were under 10 µM and over 10 µM, respectively.

As for `Fc1cnc(Nc2ccc(N3CCOCC3)cc2)nc1N[C@H]1CCN(Cc2ccccc2)C1` [Compound 1180, (S)-N4-(1 -Benzylpyrrolidin-3-yl)-5-fluoro-N2-(4-morpholinophenyl)-2,4-pyrimidinediamine], the IC50 in assay [1] (setting [6]) is under 10 µM; in assay [2] (setting [7]), over 10 µM.

Take `COc1ccc(Nc2ncc(F)c(Nc3ccc(OC)c(OC)c3)n2)cc1Cl` [Compound 425, N2-(3-Chloro-4-methoxyphenyl)-N4-(3,4-dimethoxyphenyl)-5-fluoro-2,4-pyrimidinediamine]: the IC50 in assay [1] (setting [6]) is under 10 µM; in assay [1] (Homo sapiens, Mast cell, low cell density CHMC, tryptase, 8 pt, read-out: LD Tryptase, CHMC, IgE, 8 pt) it was under 10 µM; in assay [2] (setting [7]), over 10 µM.

With `CNC(=O)COc1ccc(Nc2nc(Nc3cc(C)cc(C)c3)ncc2F)cc1Cl` [Compound 600, N4-[3-Chloro-4-(N-methylamino)carbonylmethyleneoxyphenyl]-N2-(3,5-dimethylphenyl)-5-fluoro-2,4-pyrimidinediamine], the IC50 was under 10 µM in assay [1] (low cell density CHMC, tryptase release, 3 point, read-out: LD Tryptase, CHMC, IgE, 3 pt); under 10 µM in assay [1] (low cell density CHMC, tryptase release, 8 point, read-out: LD Tryptase, CHMC, IgE, 8 pt); over 10 µM in assay [2] (low cell density CHMC, tryptase release, 3 point).

As to `COc1ccc(Nc2nc(Nc3cccc(-c4ncon4)c3)ncc2F)cc1OC` [Compound 513], the figures for the IC50 in assay [1] (setting [8]) and in assay [2] (setting [9]) were under 10 µM and over 10 µM, respectively.

For the molecule `CNC(=O)c1cc(Nc2nc(Nc3cc(C)cc(C)c3)ncc2F)ccc1Cl` [Compound 476, N4-[4-Chloro-3-(N-methylamino)carbonylphenyl]-N2-(3,5-dimethylphenyl)-5-fluoro-2,4-pyrimidinediamine], the IC50 in assay [1] (setting [8]) was under 10 µM; in assay [1] (Homo sapiens, Mast cell, low cell density, 8 pt, read-out: LD Tryptase, CHMC, IgE, 8 pt), under 10 µM; in assay [2] (setting [9]), over 10 µM.

Regarding `CCOC(=O)C(C)(C)Oc1ccc(N(C)c2nc(Cl)ncc2F)cc1Cl` [Compound 470, 2-Chloro-N4-[3-chloro-4-(ethoxycarbonyl-1,1-dimethylmethyleneoxy)phenyl]-5-fluoro-N4-methyl-4-pyrimidineamine], the IC50 in assay [1] (low cell density, 3 pt, read-out: LD Tryptase, CHMC, IgE, 3 pt) is over 10 µM; in assay [2] (low cell density, 3 pt), under 10 µM.

Take `CCOC(=O)COc1c(C)cc(Nc2ncc(F)c(Nc3ccc4c(c3)NC(=O)C(C)(C)O4)n2)cc1Cl` [Compound 1014, N2-[3-Chloro-4-ethoxycarbonylmethyleneoxy-5-methylphenyl]-N4-(2,2-dimethyl-3-oxo-4H-benz[1,4]oxazin-6-yl)-5-fluoro-2,4-pyrimidinediamine]: the IC50 in assay [1] (low cell density CHMC, tryptase readout, 3 pt, read-out: LD Tryptase, CHMC, IgE, 3 pt) is under 10 µM; in assay [1] (low cell density CHMC, tryptase readout, 8 pt, read-out: LD Tryptase, CHMC, IgE, 8 pt), under 10 µM; in assay [2] (low cell density CHMC, tryptase readout, 3 pt), under 10 µM.

As for `CN1CCN(c2ccc(Nc3ncc(F)c(Nc4cc(C(C)(C)C)[nH]n4)n3)cc2)CC1` [Compound 1104], the IC50 is under 10 µM in assay [1] (Homo sapiens, Mast cell, low cell density CHMC, tryptase readout, 3 pt, read-out: LD Tryptase, CHMC, IgE, 3 pt); under 10 µM in assay [1] (Homo sapiens, Mast cell, low cell density CHMC, tryptase readout, 8 pt, read-out: LD Tryptase, CHMC, IgE, 8 pt); over 10 µM in assay [2] (Homo sapiens, Mast cell, low cell density CHMC, tryptase readout, 3 pt).

In the case of `CCOC(=O)C(C)(C)Oc1ccc(Nc2nc(Nc3ccc(OC)c(Cl)c3)ncc2F)cc1Cl` [Compound 410, N4-[3-Chloro-4-(ethoxycarbonyl-1,1-dimethylmethyleneoxy)phenyl]-N2-(3-chloro-4-methoxyphenyl)-5-fluoro-2,4-pyrimidinediamine], the IC50 in assay [1] (setting [3]), in assay [1] (setting [4]) and in assay [2] (setting [5]) was under 10 µM throughout.
